We go through nine molecules from patent US20260374792A1, “PHENYL-FREE BISCATIONIC QUATERNARY PHOSPHONIUM COMPOUNDS AS ANTIMICROBIAL AGENTS” (priority 2022, published 2026).

SMILES strings stand for the structures. Some results are limits rather than exact numbers.

In data set [1] the test system is panel of bacteria. The settings on record: Gram-positive and Gram-negative pathogens; earlier generation compound; cited from earlier work.
Data set [2] concerns E. coli (MC4100). Nature of the data set: MIC against E. coli. It is filed as cell-based. To be noted: Escherichia coli, 72 hours, 37 °C. The procedure:
(§1) The term “minimum inhibitory concentration (MIC)” means the lowest concentration of an antimicrobial agent that will inhibit the visible growth of a microorganism after overnight incubation. MIC values against bacteria, for example, the Gram-positive Staphylococcus aureus and Enterococcus faecalis and the Gram-negative Escherichia coli and Pseudomonas aeruginosa were determined by standard methods. See also P. A. Wayne, Methods for Dilution Antimicrobial Tests for Bacteria that Grow Aerobically; Approved Standard, Ninth Edition, 2012, CLSI Document M07-A9, Vol. 32 No. 2.
(§2) Biological testing procedures were adapted from prior work by Melander and coworkers. For all biological assays, laboratory strains of methicillin-susceptible Staphylococcus aureus MSSA (SH1000), Staphylococcus aureus CA-MRSA (USA300-0114), Staphylococcus aureus HA-MRSA (ATCC 33591), Escherichia coli (MC4100), Enterococcus faecalis (OG1RF), Acinetobacter baumannii (ATCC 17978), were grown with shaking at 37 °C overnight from freezer stocks in 5 mL of the indicated media: SH1000, OG1RF, MC4100, USA300-0114, and ATCC 17978 were grown in BDTM Mueller-Hinton broth (MHB), whereas ATCC 33591 was grown in BDTM tryptic soy broth (TSB). The inoculum were then streaked onto Mueller-Hinton agar (MHA) plates and grown overnight at 37 °C. From the plates, single colonies were selected, diluted into 50 mL of fresh media and grown overnight at 37 °C with shaking for use in the MIC assays. Optical density (OD) measurements were obtained using a SpectraMax iD3 plate reader (Molecular Devices, United States).
(§3) Compounds were serially diluted two-fold from stock solutions (1.0 mM) to yield twelve 100 μL test concentrations, wherein the starting concentration of dimethyl sulfoxide (DMSO) was 2.5%. Overnight S. aureus, E. faecalis, E. coli, A. baumannii, USA300-0114 (CA-MRSA), and ATCC 33591 (HA-MRSA) cultures were diluted to ca. 10^6 CFU/mL in MHB or TSB and regrown to mid-exponential phase, as determined by optical density recorded at 600 nm (OD600). All cultures were then diluted again to ca. 10^6 CFU/mL and 100 μL were inoculated into each well of a U-bottom 96-well plate (Corning, 351177) containing 100 μL of compound solution. Plates were incubated statically at 37 °C for 72 hours upon which wells were evaluated visually for bacterial growth. The MIC was determined as the lowest concentration of compound resulting in no bacterial growth visible to the naked eye, based on the highest value in three independent experiments. Aqueous DMSO controls were conducted as appropriate for each compound.
(§4) The prepared library of biscationic amphiphilic compounds was assessed for performance as antibacterial disinfectants by determining the minimum inhibitory concentration (MIC) for each against a panel of bacteria. The bacteria selected for the study were chosen to evaluate the broad spectrum antimicrobial performance of the QPCs, and therefore, included both Gram-positive and Gram-negative bacterial strains, including those with known antimicrobial resistance mechanisms. These bacteria include the Gram-positive strains of methicillin-susceptible Staphylococcus aureus [MSSA; SH1000], community-acquired methicillin-resistant Staphylococcus aureus [CA-MRSA; USA 300-0114], hospital-acquired methicillin-resistant Staphylococcus aureus [HA-MRSA; ATCC 33591] and the […], Escherichia coli [MC4100], Acinetobacter baumannii [ATCC 17498] and Pseudomonas aeruginosa [PAO1].

Data set [3] relates to HA-MRSA (ATCC 33591). Nature of the data set: MIC against hospital-acquired methicillin-resistant S. aureus (HA-MRSA). Format: cell-based. The settings on record: Staphylococcus aureus, 72 h. The procedure: as §1, §2, §3, §4
In data set [4] the test system is CA-MRSA (USA300-0114). Briefly: MIC against community-acquired methicillin-resistant S. aureus (CA-MRSA). It is filed as cell-based. The settings on record: Staphylococcus aureus, 72 h. The procedure:
as §1, §2, §3, §4

Data set [5] concerns panel of bacteria. Briefly: MIC across the panel of bacteria (Gram-positive and Gram-negative). Format: cell-based. To be noted: for MIC: read-out: MIC values; for antimicrobial activity / bioactivity (in words): over the bacterial panel. The procedure:
as §1, §2, §3, §4

In data set [6] the test system is red blood cells. Briefly: Red Blood Cell (RBC) Lysis Assay (lysis20). It is filed as cell-based, sheep. To be noted: for Lysis20: concentration inducing 20% RBC lysis, sheep blood, 1 hour, 37 °C. The procedure:
RBC lysis assays were performed on mechanically defibrinated sheep blood (Hemostat Labs: DSB030). An aliquot of 1.5 mL blood was placed into a microcentrifuge tube and centrifuged at 3,800 rpm for ten minutes. The supernatant was removed, and the cells were resuspended with 1 mL of phosphate-buffered saline (PBS). The suspension was centrifuged as described above, the supernatant was removed, and cells were resuspended 4 additional times in 1 mL PBS. The final cell suspension was diluted twentyfold with PBS. Compounds were serially diluted with PBS two-fold from stock solutions (1.0 mM) to yield 100 μL of twelve test concentrations on a flat-bottom 96-well plate (Corning, 351172), wherein the starting concentration of DMSO was 2.5%. To each of the wells, 100 μL of the twentyfold suspension dilution was then inoculated. TritonX (1% by volume) served as a positive control (100% lysis marker) and sterile PBS served as a negative control (0% lysis marker). Samples were then placed in an incubator at 37 °C and shaken at 200 rpm. After 1 hour, the samples were centrifuged at 3,800 rpm for ten minutes. The absorbance of the supernatant was measured with a UV spectrometer at a 540 nm wavelength. The concentration inducing 20% RBC lysis was then calculated for each compound based upon the absorbances of the TritonX and PBS controls. Aqueous DMSO controls were conducted as appropriate for each compound.
The potential cytotoxicity of the compounds was also considered with the evaluation of hemolysis (lysis20) assays with 20% lysis of red blood cells serving as an indicator of potentially toxic compounds. Finally, the bioactivity of these compounds were benchmarked against a commercial benzalkonium chloride source (BAC; 70% benzyldimethyldodecylammonium chloride, and 30% benzyldimethyltetradecylammonium chloride) as well as some previously reported disinfectant compounds from the inventors' groups; included were bisQPC ^PhP6P-10,10 as well as ^PhP2P-10,10 and 12(2)12. A detailed description of the experimental procedures used to evaluate bioactivity and hemolysis assays are described above.

In data set [7] the test system is A. baumannii. Briefly: MIC against A. baumannii. Format: cell-based. To be noted: Acinetobacter baumannii, 72 h. The procedure: as §1, §2, §3, §4
The subject of data set [8] is MSSA (SH1000). Briefly: MIC against methicillin-susceptible S. aureus (MSSA). It is filed as cell-based. The settings on record: Staphylococcus aureus; MSSA (SH1000); 72 hours, 37 °C; read-out: MIC. The method, then: as §1, §2, §3, §4
For data set [9], the system named is E. faecalis (OG1RF). Briefly: MIC against E. faecalis. Format: cell-based. To be noted: Enterococcus faecalis, 72 h. The method, then: as §1, §2, §3, §4
In data set [10] the test system is P. aeruginosa (PAO1). Briefly: MIC against P. aeruginosa. The settings on record: Pseudomonas aeruginosa; P. aeruginosa (PAO1); 72 hours, 37 °C; read-out: MIC. It is filed as cell-based. The method, then:
as §1, §2, §3, §4

For data set [11], the system named is E. faecalis. Nature of the data set: MBEC, biofilm eradication, E. faecalis. It is filed as cell-based, Enterococcus faecalis. To be noted: 24 hours, 37 °C, TSB. The method, then: (§5) A regrowth assay was used to establish the MBEC of a compound to evaluate the antibiofilm activity.
(§6) Biofilm eradication experiments were performed using a pegged-lid microtiter plate assay to determine the MBEC values for compounds of interest, as previously described. […] Sci. Rep. 2017, 7, 2003; and Raval, Y. S., Flurin, L., Mohamed, A., Greenwood-Quaintance, K. E., Beyenal, H., & Patel, R. In Vitro Activity of Hydrogen Peroxide and Hypochlorous Acid Generated by Electrochemical Scaffolds Against Planktonic and Biofilm Bacteria. Antimicrob Agents Chemother. 2021, 65, e01966-20. Briefly, […] of mid-log phase culture diluted to ca. 10^6 CFU/mL in tryptic soy broth (TSB) was added to wells of plat-bottom 96-well plates (Thermo Scientific, 266120) and covered with 96-pegged lid (Thermo Scientific, 445497). Plates were incubated to establish bacterial biofilms after incubation at 37 °C for 24 hours. The pegged lid was then removed, washed with PBS, and transferred to another 96-well plate containing 2-fold serial dilutions of the test compounds (the “challenge plate”). The total volume in each well was […], comprising of […] of compound diluted in water/DMSO, with a starting DMSO concentration of 2.5%, and […] of TSB. Plates were incubated statically at 37 °C for 24 hours. Next, the pegged lids were transferred to a fresh 96-well plate containing […] of TSB and incubated overnight at 37 °C. MBEC values were determined as the lowest test concentration that resulted eradicated biofilm (i.e., wells displaying no turbidity in the final plate).

Data set [12] has as its system HA-MRSA. Briefly: MBEC, biofilm eradication, HA-MRSA. It is filed as cell-based, Staphylococcus aureus. To be noted: 24 hours, 37 °C, TSB. The procedure: as §5, §6
In data set [13] the test system is A. baumannii. Briefly: MBEC, biofilm eradication, A. baumannii. The settings on record: 24 hours, 37 °C, TSB. Format: cell-based, Acinetobacter baumannii. The procedure: as §5, §6
The test system of data set [14] is P. aeruginosa. Briefly: MBEC, biofilm eradication, P. aeruginosa. It is filed as cell-based, Pseudomonas aeruginosa. The settings on record: 24 hours, 37 °C, TSB. The method, then:
as §5, §6

With `CCCCCCCCCC[P+](CCCCCC[P+](CCCCCCCCCC)(c1ccccc1)c1ccccc1)(c1ccccc1)c1ccccc1` [^PhP6P-10,10, reference compound], the “antimicrobial efficacy (in words, earlier work)” value in data set [1] is given as “high degree of antimicrobial efficacy”. Also, the MIC in data set [2] is 2 µM; in [3], 1 µM; in data set [4], 1 µM; in data set [5], 1 to 4 µM; in data set [7], 4 µM; in data set [8] it was 1 µM. In addition, the MIC in data set [9] and in data set [10] was 2 µM each time. Besides, in data set [6], the Lysis20 is 8 µM.
For `CCCCCCCCCCCC[P+](CC)(CC)CC[P+](CC)(CC)CCCCCCCCCCCC` [^EtP2P-12,12], the MIC in data set [2] is 2 µM; in [3], 1 µM; in [4], 1 µM; in [7], 2 µM; in data set [8], 1 µM; in data set [9] it was 16 µM. In addition, the MIC in data set [10] came to 8 µM. Moreover, in data set [5], the “antimicrobial activity / bioactivity (in words)” value is “single-digit micromolar activity with just one exception”. In data set [6], this molecule returned a Lysis20 of 8 µM.
`CCCCCCCCCCC[P+](CC[P+](CCCCCCCCCCC)(C1CCCCC1)C1CCCCC1)(C1CCCCC1)C1CCCCC1` [^CyP2P-11,11]: the MIC in [2] was 4 µM; in [3], 1 µM; in [4], 1 µM; in [5] it was 1 to 8 µM; in data set [7], 4 µM; in data set [8], 1 µM. The MIC in data set [9] and in data set [10] was 8 µM throughout. In [5], the “antimicrobial activity / bioactivity (in words)” value is “single-digit micromolar activity”. The molecule also gave a Lysis20 in [6] of 8 µM.
Take `CCCCCCCCCC[N+](C)(C)CCCCCCCCCC.[Cl-]` [DDAC, didecyldimethylammonium chloride]: the MBEC in [11] was 16 µM; in data set [12] it was 16 µM; in data set [13], 8 µM; in [14] it was greater than 250 µM.
For the molecule `CCCCCCCCCCCC[P+](CC[P+](CCCCCCCCCCCC)(C1CCCCC1)C1CCCCC1)(C1CCCCC1)C1CCCCC1` [^CyP2P-12,12], the MIC in [2] is 8 µM; in data set [3], 2 µM; in data set [4], 2 µM; in data set [7] it was 4 µM; in [8] it was 2 µM; in data set [9] it was 16 µM. In addition, the minimum inhibitory concentration (MIC) in data set [10] came out at 16 µM. In data set [6], this molecule had a Lysis20 of 16 µM.
For `CCCCCCCCCCCCC[P+](CC[P+](CCCCCCCCCCCCC)(C1CCCCC1)C1CCCCC1)(C1CCCCC1)C1CCCCC1` [^CyP2P-13,13], the MIC in [2] stood at 32 µM; in data set [3] it was 1 µM; in [4], 2 µM; in data set [7] it was 16 µM; in data set [8] it was 2 µM; in [9] it was 32 µM. The MIC in data set [10] came out at 63 µM. This molecule also registered a Lysis20 in [6] of 8 µM.
As to `CCCCCCCCC[P+](C)(C)CC[P+](C)(C)CCCCCCCCC` [^MeP2P-9,9], the MIC in [2] stood at 125 µM; in data set [3] it was 16 µM; in data set [4], 8 µM; in data set [7] it was 250 µM; in [8], 8 µM; in [9] it was 125 µM. In addition, in data set [10], the MIC is greater than 250 µM. In addition, the Lysis20 in data set [6] was found to be 250 µM.
As to `CCCCCCCCCCCCCC[P+](CC)(CC)CC[P+](CC)(CC)CCCCCCCCCCCCCC` [^EtP2P-14,14], the minimal inhibitory concentration (MIC) in data set [2] was 8 µM; in data set [3] it was 4 µM; in [4], 4 µM; in [7], 32 µM; in data set [8], 8 µM; in data set [9], 63 µM. The MIC in [10] amounted to 63 µM. The molecule also gave a Lysis20 in data set [6] of 8 µM.
As for `CCCCCCCCC[P+](CC[P+](CCCCCCCCC)(C1CCCCC1)C1CCCCC1)(C1CCCCC1)C1CCCCC1` [^CyP2P-9,9], the MIC came to 16 µM in data set [2]; 2 µM in data set [3]; 1 µM in data set [4]; 16 µM in data set [5]; 16 µM in data set [7]; 1 µM in data set [8]. Besides, the MIC in [9] amounted to 16 µM; in data set [10], 32 µM. Besides, the “hemolysis (lysis20) (in words)” value in [6] is “diminished hemolysis over the commercial BAC control”. In data set [6], this molecule showed a Lysis20 of 125 µM.

As usually defined, the MIC is the lowest concentration that inhibits growth of the organism.
